According to patent US20080096967A1, “Formulations for Injection of Catecholic Butanes, Including Ndga Compounds, Into Animals” (priority 2005, published 2008):
Where two headings read alike, the source gives them in different places. Marks after values point to notes of the source that are not given here.

Experiments:
[1] = set-up: species or system Beagle dogs; conditions: in vivo
Description: Following completion of each intravenous infusion, 1 mL of sterile saline was administered as a slow bolus injection to flush the test material from the infusion line into the animal, followed by an injection of heparin-saline solution to fill the infusion line to maintain patency. The animals were observed. Cageside observation included observation for mortality, morbundity, general health, and signs of toxicity. Clinical observations included evaluation of skin and fur characteristics, surgical site, eye and mucous membranes, respiratory, circulatory, autonomic and central nervous systems, and somatomotor and behavior patterns. Blood was collected and placed into 2.5 mL serum separator tubes for serum M4N concentration analysis. The tubes were inverted several times, stored on wet ice, and centrifuged at about 3000 rpm for about 10 min. at 4° C. Serum was transferred to microcentrifuge tubes and stored at −75±10° C.
Samples were shipped on dry ice to the Analytical Chemistry Laboratory of GeneLogic (Gaithersburg, Md., U.S.A.) for test article analysis. The method involved treating aliquots of dog serum, at least 0.5 mL, with acetonitrile, filtering, and injecting the filtrate onto an HPLC column with tandem mass-spectrometry detection (LC-MS/MS). The analyte was quantified using an external standard curve with triazolam as an internal standard.

Beagle dogs = experiment: 7-Day intravenous infusion toxicity study of M4N(CPE) in Beagle dogs; format: in vivo
Description: This study was conducted to evaluate the toxicokinetic profile of M4N formulated in 30% HP-β-CD and 25% PEG 300 when administered as a single intravenous infusion dose for seven consecutive days in beagle dogs. This study constitutes the first study of this particular formulation of M4N in dogs and was executed to evaluate the toxicity and compare tolerability of a diluted formulation (10 mg/mL versus 5 mg/mL).
A total of twelve beagle dogs (8 male/4 female) were dosed with M4N via a 54-minute (Group 2) or 108-minute (Groups 1, 3 and 4) intravenous infusion. All animals received seven doses, one per day over seven consecutive days.
The following parameters were evaluated: clinical observations and body weights. Test article analysis was performed on Study Days 1 and 7, blood samples (targeting a volume of 2.0 mL) were collected from each animal from an appropriate vessel at the following time points:
Gross necropsies were performed on Groups 1 and 3 animals and all injection sites were processed for histology. […] Discolored urine appeared in Groups 1 and 3. […] The finding is likely indicative of irritation due to multiple needle insertions in the same dosing area (cephalic vein). […] Finally, sporadic observations of diarrhea, emesis, mucoid feces and soft feces were noted. These observations are common in beagle dogs and were considered stress-induced and not test article-related.

Sprague-Dawley rats = experiment: 8-Day IV infusion toxicity study in Sprague-Dawley rats; format: in vivo
Description: Escalating doses of 0, 100, 150, or 200 mg/kg M4N in 10% HP-β-CD in PEG 300 (6.25 mg/mL) were administered by IV infusion once every four days to male and female Sprague-Dawley rats (3/each sex) at 8 mL/kg/hr. […] […] One male rat was found dead on the first day dosage during administration of the vehicle and one female rat was found dead on day 5 of the study at the end of the infusion of 100 mg/kg of the test material. These deaths were not considered related to the test article because for one rat no test article (only vehicle) was administered and for the other rat, this was a single event with other rats surviving multiple days of dosing at 200 mg/kg/day.

[2] = Human Phase 0 three-way crossover microdose pharmacokinetic study of 14C-labelled M4N (AMS); format: in vivo
From the text: This study was designed to assess the absorption of […] when administered to humans as a sub-therapeutic dose either as a single oral dose under fed and fasted conditions or a single intravenous dose (Regimens A-C, respectively, in Table 24). […] During the course of each study period, pharmacokinetic blood samples were taken at specified time points after dosing and urine was collected over pre-defined time intervals. The subjects were able to leave the clinical unit after the completion of study specific procedures at 24 hours post-dose. In this study, […] was administered to humans in a 100 μg quantity. […] Each oral administration of […] consisted of 0.1 mg of ^14C labeled […] and 376.8 mg of glycerol monooleate in a size 0 gelatin capsule. […] The baseline levels of […] were corrected for any residual […] remaining in the subjects following the periods between dosing so as not to inflate the levels of […] for any subsequent dosing.

[3] = 200 mg/kg/day, continued daily dosing phase

With `COc1ccc(C[C@@H](C)[C@@H](C)Cc2ccc(OC)c(OC)c2)cc1OC` [Formulation M4N, meso-1,4-bis(3,4-dimethoxyphenyl)-2,3-dimethylbutane] as the compound, how does the “M4N in serum 16 hr following the infusion period” value ([1]; dog) read?
Its value is “still detectable”.

And the “M4N serum levels, female dog vs male dog” value [1]?
Its value is “higher in the female dog”.

What about the “injection site histology, treated vs controls” value (Beagle dogs; Group 3 (90 mg/kg) vs Group 1 (vehicle)) of the same compound?
The value was “more irritating than the vehicle”.

And the gross necropsy findings (Beagle dogs; Groups 1 and 3)?
The gross necropsy findings was “No other gross findings”.

What about the detailed clinical observations (Beagle dogs; Groups 2, 3 and 4 (45 or 90 mg/kg), daily IV infusion for 7 days, 30% HP-β-CD and 25% PEG 300) of the same compound?
The detailed clinical observations was “transient reversible uncoordination of hindlimbs”.

And the “clinical observations: ptosis and hyperactivity” value (Sprague-Dawley rats; [3])?
The value was “ptosis and hyperactivity occurred in one male and one female rat”.

What about the “clinical observations: tremors” value (Sprague-Dawley rats; [3]) of the same compound?
Its value is “tremors did occur in one male and one female rat”.

What about the mortality (Sprague-Dawley rats; 100, 150 or 200 mg/kg M4N in 10% HP-β-CD in PEG 300 (6.25 mg/mL), IV infusion 8 mL/kg/hr) of the same compound?
Its mortality is “No obvious mortality related to M4N occurred”.

And the “doses that appeared to be tolerated” value (Sprague-Dawley rats; for up to eight consecutive days)?
The value was at most 200 mg/kg/day.

What about the body weight (Sprague-Dawley rats; male and female rats) of the same compound?
Its body weight is “gained weight throughout the study”.

And the T½ ([2]; Regimen A (oral, fed): 100 μg single oral dose following a high fat breakfast, 14C, baseline corrected, mean ± SD)?
The T½ was 96.5 ± 20.7 h.

What about the Cmax ([2]; Regimen A (oral, fed): 100 μg single oral dose following a high fat breakfast, 14C, baseline corrected, mean ± SD, read-out: Cmax) of the same compound?
Its Cmax is 5.94 ± 1.33 pM.

What about the Tmax ([2]; Regimen A (oral, fed): 100 μg single oral dose following a high fat breakfast, 14C, baseline corrected, median) of the same compound?
Its Tmax is 2.50^a hours.

And the T½ ([2]; Regimen B (oral, fasted): 100 μg single oral dose following an overnight fast, 14C, baseline corrected, mean ± SD)?
The T½ was 50.9 ± 22.4 h.

What about the Cmax ([2]; Regimen B (oral, fasted): 100 μg single oral dose following an overnight fast, 14C, baseline corrected, mean ± SD, read-out: Cmax) of the same compound?
The Cmax was 9.29 ± 1.4 pM.

What about the Tmax ([2]; Regimen B (oral, fasted): 100 μg single oral dose following an overnight fast, 14C, baseline corrected, median) of the same compound?
Its Tmax is 1.00^a hours.

And the T½ ([2]; Regimen C (Intravenous): 100 μg as 1 mL bolus intravenous solution following an overnight fast, 14C, baseline corrected, mean ± SD)?
Its T½ is 116.2 ± 64.0 h.

And the Cmax ([2]; Regimen C (Intravenous): 100 μg as 1 mL bolus intravenous solution following an overnight fast, 14C, baseline corrected, mean ± SD, read-out: Cmax)?
Its Cmax is 10.3 ± 1.77 pM.

What about the Tmax ([2]; Regimen C (Intravenous): 100 μg as 1 mL bolus intravenous solution following an overnight fast, 14C, baseline corrected, median) of the same compound?
The Tmax was 0.08^a hours.

What about the Tmax ([2]; intravenous dose, eight of the ten subjects (first sampling time)) of the same compound?
The Tmax was 0.08 h.

What about the Tmax ([2]; intravenous dose, two subjects) of the same compound?
Its Tmax is 0.17 h.

What about the Cmax ([2]; oral 100 μg 14C-labelled M4N after a high fat breakfast, mean±SD, read-out: Cmax for total 14C) of the same compound?
Its Cmax is 5.94 ± 1.33 pM.

What about the Cmax ([2]; oral 100 μg 14C-labelled M4N after an overnight fast, mean±SD, read-out: Cmax for total 14C) of the same compound?
The Cmax was 9.29 ± 1.4 pM.

And the apparent absorption ([2]; oral administration, fed and fasted state)?
Its apparent absorption is “very high”.

What about the Tmax ([2]; oral, fasted subjects) of the same compound?
Its Tmax is about 1 h.

And the Cmax ([2]; single intravenous dose 100 μg in 30% HP-β-CD, 25% PEG, mean±SD, read-out: Cmax for total 14C)?
The Cmax was 10.3 ± 1.77 pM.
